# Experimental data published in ChEMBL document CHEMBL3885881, “DrugMatrix”.
# Species: Rattus norvegicus
# Assay: DrugMatrix - Regimen: Daily Repeat
# Type: toxicity, organism-based, Sprague-Dawley
# Parameters: regimen Daily Repeat, gender Male, age 6-8 weeks
# Conditions: in vivo, sc, 1.75 mg/kg, route mini-PUMP - SUBCUTANEOUS, dose level High, vehicle 100 % SALINE; for ABSOLUTE BASOPHIL / ABSOLUTE EOSINOPHIL / ABSOLUTE LYMPHOCYTE / ABSOLUTE MONOCYTE / ABSOLUTE SEGMENTED NEUTROPHIL / BASOPHIL / EOSINOPHIL / ERYTHROCYTE COUNT / HEMATOCRIT / HEMOGLOBIN / LEUKOCYTE COUNT / LYMPHOCYTE / MEAN CORPUSCULAR HEMOGLOBIN / MEAN CORPUSCULAR HEMOGLOBIN CONCENTRATION / MEAN CORPUSCULAR VOLUME / MONOCYTE / NEUTROPHIL / NUCLEATED RED BLOOD CELLS / PLATELET COUNT: tissue Blood; for ALANINE AMINOTRANSFERASE / ALBUMIN / ALKALINE PHOSPHATASE / ASPARTATE AMINOTRANSFERASE / BLOOD UREA NITROGEN / CARBON DIOXIDE / CHLORIDE / CHOLESTEROL / CREATININE / GLUCOSE / LACTATE DEHYDROGENASE / LIPASE / PHOSPHORUS / POTASSIUM / SODIUM / TOTAL BILIRUBIN / TOTAL PROTEIN / URIC ACID: tissue Plasma
smiles,measurement,setting,value
NC[C@H](O)c1ccc(O)c(O)c1 [NOREPINEPHRINE],ABSOLUTE BASOPHIL,"72 h, time 3 day",0 CELLS/uL
same,ABSOLUTE EOSINOPHIL,"72 h, time 3 day",0 CELLS/uL
same,ABSOLUTE LYMPHOCYTE,"72 h, time 3 day",13450.33 CELLS/uL
same,ABSOLUTE MONOCYTE,"72 h, time 3 day",275.33 CELLS/uL
same,ABSOLUTE SEGMENTED NEUTROPHIL,"72 h, time 3 day",1174.33 CELLS/uL
same,BASOPHIL,"72 h, time 3 day",0%
same,EOSINOPHIL,"72 h, time 3 day",0%
same,ERYTHROCYTE COUNT,"72 h, time 3 day",6.14 x10E6/uL
same,HEMATOCRIT,"72 h, time 3 day",36.87%
same,HEMOGLOBIN,"72 h, time 3 day",13.53 G/DL
same,LEUKOCYTE COUNT,"72 h, time 3 day",14.9 x10E3/uL
same,LYMPHOCYTE,"72 h, time 3 day",90.67%
same,MEAN CORPUSCULAR HEMOGLOBIN,"72 h, time 3 day",22.03 pg
same,MEAN CORPUSCULAR HEMOGLOBIN CONCENTRATION,"72 h, time 3 day",36.73 G/DL
same,MEAN CORPUSCULAR VOLUME,"72 h, time 3 day",60 fL
same,MONOCYTE,"72 h, time 3 day",2%
same,NEUTROPHIL,"72 h, time 3 day",7.33%
same,NUCLEATED RED BLOOD CELLS,"72 h, time 3 day",0.33 /100WBC
same,PLATELET COUNT,"72 h, time 3 day",1242.33 x10E3/uL
same,ALANINE AMINOTRANSFERASE,"72 h, time 3 day",42.67 u/L
same,ALBUMIN,"72 h, time 3 day",4.07 G/DL
same,ALKALINE PHOSPHATASE,"72 h, time 3 day",322.67 u/L
same,ASPARTATE AMINOTRANSFERASE,"72 h, time 3 day",89.33 u/L
same,BLOOD UREA NITROGEN,"72 h, time 3 day",16.67 mg/dL
same,CARBON DIOXIDE,"72 h, time 3 day",25 mmol/L
same,CHLORIDE,"72 h, time 3 day",104.33 MEQ/L
same,CHOLESTEROL,"72 h, time 3 day",72.67 mg/dL
same,CREATININE,"72 h, time 3 day",0.21 mg/dL
same,GLUCOSE,"72 h, time 3 day",169 mg/dL
same,LACTATE DEHYDROGENASE,"72 h, time 3 day",701 u/L
same,LIPASE,"72 h, time 3 day",9.67 u/L
same,PHOSPHORUS,"72 h, time 3 day",11.73 mg/dL
same,POTASSIUM,"72 h, time 3 day",6.75 MEQ/L
same,SODIUM,"72 h, time 3 day",150.2 MEQ/L
same,TOTAL BILIRUBIN,"72 h, time 3 day",0.17 mg/dL
same,TOTAL PROTEIN,"72 h, time 3 day",6.3 G/DL
same,URIC ACID,"72 h, time 3 day",1.8 mg/dL
same,ABSOLUTE BASOPHIL,"120 h, time 5 day",0 CELLS/uL
same,ABSOLUTE EOSINOPHIL,"120 h, time 5 day",0 CELLS/uL
same,ABSOLUTE LYMPHOCYTE,"120 h, time 5 day",12875 CELLS/uL
same,ABSOLUTE MONOCYTE,"120 h, time 5 day",478 CELLS/uL
same,ABSOLUTE SEGMENTED NEUTROPHIL,"120 h, time 5 day",2047 CELLS/uL
same,BASOPHIL,"120 h, time 5 day",0%
same,EOSINOPHIL,"120 h, time 5 day",0%
same,ERYTHROCYTE COUNT,"120 h, time 5 day",6.43 x10E6/uL
same,HEMATOCRIT,"120 h, time 5 day",38.73%
same,HEMOGLOBIN,"120 h, time 5 day",14.3 G/DL
same,LEUKOCYTE COUNT,"120 h, time 5 day",15.4 x10E3/uL
same,LYMPHOCYTE,"120 h, time 5 day",84.33%
same,MEAN CORPUSCULAR HEMOGLOBIN,"120 h, time 5 day",22.23 pg
same,MEAN CORPUSCULAR HEMOGLOBIN CONCENTRATION,"120 h, time 5 day",36.93 G/DL
same,MEAN CORPUSCULAR VOLUME,"120 h, time 5 day",60.27 fL
same,MONOCYTE,"120 h, time 5 day",3%
same,NEUTROPHIL,"120 h, time 5 day",12.67%
same,NUCLEATED RED BLOOD CELLS,"120 h, time 5 day",0 /100WBC
same,PLATELET COUNT,"120 h, time 5 day",1321.67 x10E3/uL
same,ALANINE AMINOTRANSFERASE,"120 h, time 5 day",45 u/L
same,ALBUMIN,"120 h, time 5 day",4.47 G/DL
same,ALKALINE PHOSPHATASE,"120 h, time 5 day",289.33 u/L
same,ASPARTATE AMINOTRANSFERASE,"120 h, time 5 day",74.33 u/L
same,BLOOD UREA NITROGEN,"120 h, time 5 day",14.67 mg/dL
same,CARBON DIOXIDE,"120 h, time 5 day",28 mmol/L
same,CHLORIDE,"120 h, time 5 day",103 MEQ/L
same,CHOLESTEROL,"120 h, time 5 day",70.67 mg/dL
same,CREATININE,"120 h, time 5 day",0.13 mg/dL
same,GLUCOSE,"120 h, time 5 day",203 mg/dL
same,LACTATE DEHYDROGENASE,"120 h, time 5 day",122 u/L
same,LIPASE,"120 h, time 5 day",9.33 u/L
same,PHOSPHORUS,"120 h, time 5 day",12.63 mg/dL
same,POTASSIUM,"120 h, time 5 day",6.59 MEQ/L
same,SODIUM,"120 h, time 5 day",150.5 MEQ/L
same,TOTAL BILIRUBIN,"120 h, time 5 day",0.17 mg/dL
same,TOTAL PROTEIN,"120 h, time 5 day",6.8 G/DL
same,URIC ACID,"120 h, time 5 day",2.17 mg/dL
same,ABSOLUTE BASOPHIL,"[…], time 14 day",0 CELLS/uL
same,ABSOLUTE EOSINOPHIL,"[…], time 14 day",45.6 CELLS/uL
same,ABSOLUTE LYMPHOCYTE,"[…], time 14 day",15398.2 CELLS/uL
same,ABSOLUTE MONOCYTE,"[…], time 14 day",562 CELLS/uL
same,ABSOLUTE SEGMENTED NEUTROPHIL,"[…], time 14 day",3234.2 CELLS/uL
same,BASOPHIL,"[…], time 14 day",0%
same,EOSINOPHIL,"[…], time 14 day",0.2%
same,ERYTHROCYTE COUNT,"[…], time 14 day",6.59 x10E6/uL
same,HEMATOCRIT,"[…], time 14 day",38.5%
same,HEMOGLOBIN,"[…], time 14 day",14.08 G/DL
same,LEUKOCYTE COUNT,"[…], time 14 day",19.24 x10E3/uL
same,LYMPHOCYTE,"[…], time 14 day",80.6%
same,MEAN CORPUSCULAR HEMOGLOBIN,"[…], time 14 day",21.36 pg
same,MEAN CORPUSCULAR HEMOGLOBIN CONCENTRATION,"[…], time 14 day",36.56 G/DL
same,MEAN CORPUSCULAR VOLUME,"[…], time 14 day",58.42 fL
same,MONOCYTE,"[…], time 14 day",3%
same,NEUTROPHIL,"[…], time 14 day",16.2%
same,NUCLEATED RED BLOOD CELLS,"[…], time 14 day",0 /100WBC
same,PLATELET COUNT,"[…], time 14 day",980.2 x10E3/uL
same,ALANINE AMINOTRANSFERASE,"[…], time 14 day",57.6 u/L
same,ALBUMIN,"[…], time 14 day",4.18 G/DL
same,ALKALINE PHOSPHATASE,"[…], time 14 day",349 u/L
same,ASPARTATE AMINOTRANSFERASE,"[…], time 14 day",86 u/L
same,BLOOD UREA NITROGEN,"[…], time 14 day",15.8 mg/dL
same,CARBON DIOXIDE,"[…], time 14 day",30 mmol/L
same,CHLORIDE,"[…], time 14 day",102.6 MEQ/L
same,CHOLESTEROL,"[…], time 14 day",72.4 mg/dL
same,CREATININE,"[…], time 14 day",0.22 mg/dL
same,GLUCOSE,"[…], time 14 day",187.4 mg/dL
same,LACTATE DEHYDROGENASE,"[…], time 14 day",105.4 u/L
same,LIPASE,"[…], time 14 day",8.8 u/L
same,PHOSPHORUS,"[…], time 14 day",13.42 mg/dL
same,POTASSIUM,"[…], time 14 day",7.42 MEQ/L
same,SODIUM,"[…], time 14 day",147.96 MEQ/L
same,TOTAL BILIRUBIN,"[…], time 14 day",0.16 mg/dL
same,TOTAL PROTEIN,"[…], time 14 day",6.34 G/DL
same,URIC ACID,"[…], time 14 day",2.42 mg/dL
